Experimental data reported in patent US8193213B2, “Spermicidal and/or antifungal composition and methods of using the same” (priority 2003, dated 2012).
Marks after values point to notes of the source that are not given here.

What was measured:
adult male Swiss mice = assay: Antispermatogenic screen: single gavage dose to male mice, testes weight and Spermatogenic Index at 72 h; type: in vivo; conditions: day 3 (72 h)
Method: The compounds of the invention were tested in mice for their effects on spermatogenesis three days after a single oral dose by the procedure described in Cook et al (1995) below. Compounds active in this test have been shown also to be anti-fertility compounds.
Compounds were screened for antispermatogenic activity by dosing male mice on day 1 with a gavage dose of control vehicle, positive control (compound 1) or compound of the invention. At 72 h after dosing, animals were killed and the testes were excised, trimmed of fat, and weighed. One testis was examined histologically and rated for spermatogenic potential using the Spermatogenic Index (J. M. Whitsett, P. F. Noden, J. Cherry and A. D. Lawton, J. Reprod. Fertil., 72, 277 (1984), which is a semiquantitative estimate of the sperm producing ability of the testes The index is based on histological appearance of the spermatogenic cells in the seminiferous tubules. A scale of 1 to 6 is used with 5 to 6 being the normal status. A second assessment was based on the weight of the testes.
Tables 1 and 2 show pertinent biological results in terms of the change in testes weight (TW) and spermatogenic index (SI) relative to a control containing only the administration vehicle, but no indenopyridine. In Tables 1 and 2, R^3 and R^4 refer to structures Ib, where R^3 is in the para position; R^1 is ethyl; R^2 is methyl; and R^5 is hydrogen.

testes = assay: Antispermatogenic activity after a single oral dose to rats; type: in vivo; conditions: single oral dose of 30 mg/kg
Source text: Spermatids became pycnotic, occasionally forming multinucleated associations. Sertoli cells appear to be cytologically normal. It appears that compound 1 targets spermatids or the Sertoli cell associated with these spermatids because histologic changes are observed in these spermatids first.

mice = assay: Lethargy and sedation in mice; type: in vivo
Source text: Lethargy and sedation are obviously undesirable side effects in contraceptive agents. In contrast to the lethargy and sedation observed with compound 1, the compounds of the present invention produce minimal lethargy.

spermatogenesis = conditions: oral administration to animals; cited from earlier work
[1] = Table 2, 30 mg/kg single gavage dose, vehicle 1% Tween20 in water
[2] = racemic compounds, 30 mg/kg single gavage dose, vehicle 90% water, 7% Tween20, 3% ethanol
[3] = racemic compounds, 10 mg/kg single gavage dose, vehicle 90% water, 7% Tween20, 3% ethanol
[4] = racemic compounds, 1 mg/kg single gavage dose, vehicle 90% water, 7% Tween20, 3% ethanol
[5] = racemic compounds, 3 mg/kg single gavage dose, vehicle 90% water, 7% Tween20, 3% ethanol

Row | Structure (SMILES) | melting point | SI change (%) (Spermatogenic Index, % change from vehicle control) (adult male Swiss mice; [1]) | TW change (%) (testes weight, % change from vehicle control) (adult male Swiss mice; [1]) | SI change (%) (Spermatogenic Index, % change from vehicle control) (adult male Swiss mice; [2]) | TW change (%) (testes weight, % change from vehicle control) (adult male Swiss mice; [2]) | Testis histology (testes) | Effect on weights of the testes (testes; within 24 h) | Lethargy (mice; 30 mg/kg given subcutaneously) | Lethargy and sedation (mice; oral dose of 30 mg/kg) | Inhibition of spermatogenesis (spermatogenesis) | SI change (%) (Spermatogenic Index, % change from vehicle control) (adult male Swiss mice; [3]) | TW change (%) (testes weight, % change from vehicle control) (adult male Swiss mice; [3]) | SI change (%) (Spermatogenic Index, % change from vehicle control) (adult male Swiss mice; [4]) | TW change (%) (testes weight, % change from vehicle control) (adult male Swiss mice; [4]) | SI change (%) (Spermatogenic Index, % change from vehicle control) (adult male Swiss mice; [5]) | TW change (%) (testes weight, % change from vehicle control) (adult male Swiss mice; [5])
1 | CCN1CC[C@@H]2[C@@H](c3ccc(C(=O)OC)cc3)c3cc(C)ccc3[C@@H]2C1.Cl (racemic) | 204 °C |  |  |  |  |  |  |  |  |  |  |  |  |  |  | 
2 | CCN1CC[C@@H]2[C@@H](c3ccc(C)cc3)c3cc(C)ccc3[C@@H]2C1 (racemic) [Compound 1, (4aRS,5SR,9bRS)-2-ethyl-2,3,4,4a,5,9b-hexahydro-7-methyl-5-(4-methylphenyl)-1H-indeno[1,2-c]pyridine] |  | −61%* | −24%* | −55%* | 19%* | Degenerative changes in the seminiferous tubules | drastically reducing the weights of the testes | extreme lethargy | some lethargy and sedation | reversible inhibition of spermatogenesis |  |  |  |  |  | 
3 | CCN1CC[C@@H]2[C@@H](c3ccc(C(=O)O)cc3)c3cc(C)ccc3[C@@H]2C1.Cl (racemic) [Compound 2, (4aRS,5SR,9bRS)-2-Ethyl-2,3,4,4a,5,9b-hexahydro-7-methyl-5-(4-carboxyphenyl)-1H-indeno[1,2-c]pyridine Hydrochloride] | 280 °C (dec.) |  |  | −52%* | −7% |  |  |  |  |  | −24%* | 2% |  |  |  | 
4 | CCN1CC[C@@H]2[C@@H](c3ccc(C(=O)OC)cc3)c3cc(C)c(I)cc3[C@@H]2C1.Cl (racemic) [Compound 18, (4aRS,5SR,9bRS)-2-Ethyl-2,3,4,4a,5,9b-hexahydro-8-iodo-7-methyl-5-(4-carbomethoxyphenyl)-1H-indeno[1,2-c]pyridine Hydrochloride] | > 190 °C (dec.) |  |  |  |  |  |  |  |  |  | −74%* | −36%* | −57%* | −16% | −69%* | −27%*
5 | CCN1CC[C@@H]2[C@@H](c3ccc(C(=O)O)cc3)c3cc(C)c(Br)cc3[C@@H]2C1.Cl (racemic) [Compound 19, (4aRS,5SR,9bRS)-2-Ethyl-8-Bromo-7-Methyl-2,3,4,4a,5,9b-Hexahydro-5-(4-carboxylphenyl)-1H-Indeno[1,2-c]pyridine Hydrochloride] | 169.6 to 170.3 °C |  |  | −72%* | −39%* |  |  |  |  |  | −71%* | −28%* |  |  | −69%* | −8%
